Experimental data: US20030113916A1, “Method for producing somatic embryos of scot pine (p sylvestris)” (priority 2000, published 2003)

Test system: embryogenic cell lines F1, F2-1, F2-2, F2-3 (previously cryopreserved)
Assay: Maturation of somatic embryos on media with different ammonium to nitrate molar ratios and carbon sources
Assay type: cell-based, Pinus sylvestris
Settings: ABA tested at 20, 35 y 60 μM in previous evaluation
Experimental: For maturation process is highly relevant the interaction between nitrogen and carbon source, and the type of the carbon source. […] High concentration of abscisic acid has to be added when starting maturation in order to acquire best quality embryos and avoiding precocious germination; high average of conifers protocols ABA concentration varying between 16 μM and 24 μM. However for Pinus genera ABA is required between 60 μM and 100 μM. […] In order to produce gymnosperm mature somatic embryos with normal germination, is required such embryos developing on medium supplemented with high concentration of desiccant compound.
Under the evaluation done to produce normal embryos, was utilized between 400 and 600 mg of embryogenic tissue per sample, such amount was dispersed on filter paper as no thin layer, with two washing only with liquid mineral medium and they were exposed only two weeks on medium supplemented with activated charcoal.

CC1=CC(=O)CC(C)(C)[C@@]1(O)/C=C/C(C)=C\C(=O)O [ABA, abscisic acid]
Effect on maturation of the cell lines: non effect
